Read-outs that look alike come from different tables or passages of the source.
Assays:
[1] = molecular target: Human plasma kallikrein (Homo sapiens (Human), UniProt P03952); experiment: Kallikrein Assay; assay type: biochemical; conditions: purified Human plasma kallikrein 0.5 nM, Acetyl-K-P-R-AFC, pH 7.4; Ki from IC50 by Cheng Prusoff
Summary of the method: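 Purified human plasma kallikrein (0.5 nM final) with Acetyl-K-P-R-AFC substrate ([…]) in 50 mM HEPES pH 7.4, 150 mM NaCl, 5 mM CaCl2, 0.1% PEG 8000, after enzyme-inhibitor equilibration. Fluorescence (405 ex/510 em) under linear conditions; IC50 from four-parameter fit, converted to Ki by Cheng-Prusoff.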

[2] = molecular target: human Factor XIa (Homo sapiens (Human), UniProt P03951); experiment: Factor XIa Assay; assay type: biochemical; conditions: read-out: FXIa Ki
Summary of the method: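 Ki derived from the dependence of Vo/Vi on inhibitor concentration under a competitive-inhibition model, after pre-equilibration of enzyme and inhibitor. Reaction: 40 pM human FXIa, 100 μM Z-Gly-Pro-Arg-AFC, HEPES 50 mM pH 7.4 with NaCl, CaCl2 and PEG 8000; run at room temperature or 37° C.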

[3] = purified human Factor XIa 40 pM, Z-Gly-Pro-Arg-AFC 100 μM, pH 7.4

Chain of human Factor XIa (P03951 388-625): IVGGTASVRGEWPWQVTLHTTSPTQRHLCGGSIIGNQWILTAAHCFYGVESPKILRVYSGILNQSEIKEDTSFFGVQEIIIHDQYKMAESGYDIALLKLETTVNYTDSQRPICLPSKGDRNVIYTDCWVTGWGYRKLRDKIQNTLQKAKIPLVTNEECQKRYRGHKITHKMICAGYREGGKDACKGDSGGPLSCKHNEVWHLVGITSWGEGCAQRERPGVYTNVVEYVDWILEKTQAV
Chain of human Factor XIa (P03951 19-387 partner): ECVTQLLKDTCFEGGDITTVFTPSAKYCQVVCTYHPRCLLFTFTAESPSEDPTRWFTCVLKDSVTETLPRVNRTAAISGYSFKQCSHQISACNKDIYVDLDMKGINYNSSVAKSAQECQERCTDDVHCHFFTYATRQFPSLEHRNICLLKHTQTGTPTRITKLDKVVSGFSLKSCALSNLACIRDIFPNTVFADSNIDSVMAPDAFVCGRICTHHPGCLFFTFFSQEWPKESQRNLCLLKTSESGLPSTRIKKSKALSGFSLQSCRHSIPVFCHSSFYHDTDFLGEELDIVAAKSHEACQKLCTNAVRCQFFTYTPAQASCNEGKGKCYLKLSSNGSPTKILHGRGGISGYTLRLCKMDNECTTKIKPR
Chain of Human plasma kallikrein (P03952 391-638): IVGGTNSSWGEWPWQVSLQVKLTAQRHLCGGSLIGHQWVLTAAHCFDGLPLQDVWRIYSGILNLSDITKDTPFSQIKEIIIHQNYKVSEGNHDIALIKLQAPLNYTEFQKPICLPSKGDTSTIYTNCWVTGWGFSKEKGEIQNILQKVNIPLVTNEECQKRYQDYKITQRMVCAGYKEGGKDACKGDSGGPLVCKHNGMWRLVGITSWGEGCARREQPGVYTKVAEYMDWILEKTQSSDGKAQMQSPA
Chain of Human plasma kallikrein (P03952 20-390 partner): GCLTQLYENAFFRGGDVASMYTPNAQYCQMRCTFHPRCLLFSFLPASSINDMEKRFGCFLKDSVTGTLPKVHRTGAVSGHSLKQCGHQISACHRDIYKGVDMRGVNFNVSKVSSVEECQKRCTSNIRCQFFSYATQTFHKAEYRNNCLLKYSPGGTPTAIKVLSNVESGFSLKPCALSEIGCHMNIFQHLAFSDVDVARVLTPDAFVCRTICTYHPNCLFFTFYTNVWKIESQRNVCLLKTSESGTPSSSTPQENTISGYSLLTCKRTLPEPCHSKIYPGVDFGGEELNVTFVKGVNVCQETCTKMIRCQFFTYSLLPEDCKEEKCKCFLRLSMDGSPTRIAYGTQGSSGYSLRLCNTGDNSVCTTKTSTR

SMILES	Ki [1]	Ki [2, 3]	Ki [2]
COC(=O)Nc1ccc(C(=O)N[C@@H](Cc2cscn2)C(=O)N2CCC[C@@]3(C2)OC(=O)Nc2ccc(Cl)cc23)cc1 [Example 58, methyl (4-(((S)-1-((R)-6-chloro-2-oxo-1,2-dihydrospiro[benzo[d][1,3]oxazine-4,3′-piperidin]-1′-yl)-1-oxo-3-(thiazol-4-yl)propan-2-yl)carbamoyl)phenyl)carbamate]	< 1.36 nM	4.04 nM	–
O=C1Nc2ccc(Cl)cc2[C@@]2(CCCN(C(=O)[C@H](Cc3ccccc3)NC(=O)c3ccc(C(=O)O)s3)C2)O1 [Example 203]	2.1 nM	–	10.3 nM
COC(=O)Nc1ccc(C(=O)N[C@@H](CCSC)C(=O)N2CCC[C@@]3(C2)OC(=O)Nc2ccc(Cl)cc23)cc1 [Example 57, methyl (4-(((S)-1-((R)-6-chloro-2-oxo-1,2-dihydrospiro[benzo[d][1,3]oxazine-4,3′-piperidin]-1′-yl)-4-(methylthio)-1-oxobutan-2-yl)carbamoyl)phenyl)carbamate]	1.43 nM	4.9 nM	–
COC(=O)Nc1ccc(C(=O)N[C@@H](Cc2ccc(C(=O)c3ccccc3)cc2)C(=O)N2CCC3(C2)OC(=O)Nc2ccc(Cl)cc23)cc1 (stereo partly drawn) [Example 39, methyl (4-(((2S)-3-(4-benzoylphenyl)-1-(6-chloro-2-oxo-1,2-dihydrospiro[benzo[d][1,3]oxazine-4,3′-pyrrolidin]-1′-yl)-1-oxopropan-2-yl)carbamoyl)phenyl)carbamate]	86.6 nM	39.3 nM	–
COC(=O)Nc1ccc(C(=O)N[C@@H](Cc2ccncc2F)C(=O)N2CCC[C@@]3(C2)OC(=O)Nc2ccc(Cl)c(F)c23)cc1 [Example 76, methyl (4-(((S)-1-((R)-6-chloro-5-fluoro-2-oxo-1,2-dihydrospiro[benzo[d][1,3]oxazine-4,3′-piperidin]-1′-yl)-3-(3-fluoropyridin-4-yl)-1-oxopropan-2-yl)carbamoyl)phenyl)carbamate]	1.2 nM	1.39 nM	–

Results, then the compound that gave them:

Ki [1]	Ki [2, 3]	Ki [2]	SMILES
< 1.36 nM	–	5.72 nM	O=C1CCc2cc(C(=O)N[C@@H](CC3CC3)C(=O)N3CCC[C@@]4(C3)OC(=O)Nc3ccc(Cl)c(F)c34)ccc2N1 [Example 251]
2.72 nM	–	17.3 nM	COCC(=O)Nc1ccc(C(=O)N[C@@H](Cc2ccccc2)C(=O)N2CCC[C@@]3(C2)OC(=O)Nc2ccc(Cl)c(F)c23)cc1 [Example 230, N-((S)-1-((R)-6-chloro-5-fluoro-2-oxo-1,2-dihydrospiro[benzo[d][1,3]oxazine-4,3′-piperidin]-1′-yl)-1-oxo-3-phenylpropan-2-yl)-4-(2-methoxyacetamido)benzamide]

Source: patent US10093683B2, “Factor XIa inhibitors” (Merck Sharp & Dohme Corp., priority 2014, dated 2018)
